Measurements reported in patent US8188059B2, “Compounds and methods for modulating expression of GCGR” (Isis Pharmaceuticals, Inc., priority 2006, dated 2012).
Strand notation (5' to 3'): a small letter for the sugar, then the base; units joined by * are phosphorothioate-linked, units joined directly phosphodiester-linked; [ ] holds rarer units or linkages, { } end groups; capitals alone tell only the bases. e = 2'-O-(2-methoxyethyl) (MOE); [5mC] = 5-methylcytosine; d = 2'-deoxy (DNA)

Legend:
DGAT2 mRNA = assay: Antisense inhibition of DGAT2 in A10 cells at 75 nM (Example 22, Table 81); type: cell-based, rat; conditions: approximately 24 hours
Description: Short antisense compounds targeted to a DGAT2 nucleic acid were tested for their effects on DGAT2 mRNA in vitro. Cultured A10 cells in a 96-well plate were treated with 75 nM of short antisense compound. After a treatment period of approximately 24 hours, RNA was isolated from the cells and DGAT2 mRNA levels were measured by quantitative real-time PCR, as described herein. DGAT2 mRNA levels were adjusted according to total RNA content as measured by RIBOGREEN®. […]

rat DGAT2 mRNA = assay: Dose-dependent inhibition of DGAT2 in A10 cells, 0.62-150 nM (Example 22, Table 83); type: cell-based
Description: Additional short antisense compounds targeted to DGAT2 mRNA were tested in vitro. A10 cells were prepared as described above and treated with 0.62, 1.85, 5.56, 16.67, 50.0, and 150.0 nM short antisense compounds to determine if DGAT2 inhibition occurs in a dose-dependent manner. DGAT2 mRNA was measured using quantitative real-time PCR, as described herein. […] Results are presented as percent inhibition of rat DGAT2, relative to untreated control cells.

## 372491 (antisense eA*e[5mC]*eA*dT*dG*dA*dG*dG*dA*dT*dG*dA*d[5mC]*eA*e[5mC]*eT) [compound 372491]
DGAT2 mRNA
  DGAT2 mRNA, % Control: 80%

## 372500 (antisense eG*eT*eG*dT*dG*dT*d[5mC]*dT*dT*d[5mC]*dA*d[5mC]*d[5mC]*eA*eG*e[5mC]) [compound 372500]
DGAT2 mRNA
  DGAT2 mRNA, % Control: 16%
Rat DGAT2 mRNA; 0.62 nM
  percent inhibition of rat DGAT2: 0
Rat DGAT2 mRNA; 1.85 nM
  percent inhibition of rat DGAT2: 0
Rat DGAT2 mRNA; 5.56 nM
  percent inhibition of rat DGAT2: 0
Rat DGAT2 mRNA; 16.67 nM
  percent inhibition of rat DGAT2: 18
Rat DGAT2 mRNA; 50 nM
  percent inhibition of rat DGAT2: 64
Rat DGAT2 mRNA; 150 nM
  percent inhibition of rat DGAT2: 88

## 372501 (antisense eT*eT*eG*dT*dG*dT*dG*dT*d[5mC]*dT*dT*d[5mC]*dA*e[5mC]*e[5mC]*eA) [compound 372501]
DGAT2 mRNA
  DGAT2 mRNA, % Control: 28%
Rat DGAT2 mRNA; 0.62 nM
  percent inhibition of rat DGAT2: 1
Rat DGAT2 mRNA; 1.85 nM
  percent inhibition of rat DGAT2: 5
Rat DGAT2 mRNA; 5.56 nM
  percent inhibition of rat DGAT2: 10
Rat DGAT2 mRNA; 16.67 nM
  percent inhibition of rat DGAT2: 11
Rat DGAT2 mRNA; 50 nM
  percent inhibition of rat DGAT2: 25
Rat DGAT2 mRNA; 150 nM
  percent inhibition of rat DGAT2: 68

## 372503 (antisense eG*e[5mC]*eA*dG*dG*dT*dT*dG*dT*dG*dT*dG*dT*e[5mC]*eT*eT) [compound 372503]
DGAT2 mRNA
  DGAT2 mRNA, % Control: 35%
Rat DGAT2 mRNA; 0.62 nM
  percent inhibition of rat DGAT2: 7
Rat DGAT2 mRNA; 1.85 nM
  percent inhibition of rat DGAT2: 10
Rat DGAT2 mRNA; 5.56 nM
  percent inhibition of rat DGAT2: 4
Rat DGAT2 mRNA; 16.67 nM
  percent inhibition of rat DGAT2: 25
Rat DGAT2 mRNA; 50 nM
  percent inhibition of rat DGAT2: 54
Rat DGAT2 mRNA; 150 nM
  percent inhibition of rat DGAT2: 80

## 372508 (antisense eA*eG*eT*dT*d[5mC]*d[5mC]*dT*dG*dG*dT*dG*dG*dT*e[5mC]*eA*eG) [compound 372508]
DGAT2 mRNA
  DGAT2 mRNA, % Control: 35%
Rat DGAT2 mRNA; 0.62 nM
  percent inhibition of rat DGAT2: 0
Rat DGAT2 mRNA; 1.85 nM
  percent inhibition of rat DGAT2: 0
Rat DGAT2 mRNA; 5.56 nM
  percent inhibition of rat DGAT2: 6
Rat DGAT2 mRNA; 16.67 nM
  percent inhibition of rat DGAT2: 14
Rat DGAT2 mRNA; 50 nM
  percent inhibition of rat DGAT2: 39
Rat DGAT2 mRNA; 150 nM
  percent inhibition of rat DGAT2: 71

## 372516 (antisense eT*eA*e[5mC]*dA*dG*dA*dA*dG*dG*d[5mC]*dA*d[5mC]*d[5mC]*e[5mC]*eA*eG) [compound 372516]
DGAT2 mRNA
  DGAT2 mRNA, % Control: 27%
Rat DGAT2 mRNA; 0.62 nM
  percent inhibition of rat DGAT2: 1
Rat DGAT2 mRNA; 1.85 nM
  percent inhibition of rat DGAT2: 10
Rat DGAT2 mRNA; 5.56 nM
  percent inhibition of rat DGAT2: 0
Rat DGAT2 mRNA; 16.67 nM
  percent inhibition of rat DGAT2: 4
Rat DGAT2 mRNA; 50 nM
  percent inhibition of rat DGAT2: 35
Rat DGAT2 mRNA; 150 nM
  percent inhibition of rat DGAT2: 81

## 372524 (antisense eG*e[5mC]*e[5mC]*dA*dG*dG*d[5mC]*dA*dT*dG*dG*dA*dG*e[5mC]*eT*e[5mC]) [compound 372524]
DGAT2 mRNA
  DGAT2 mRNA, % Control: 21%
Rat DGAT2 mRNA; 0.62 nM
  percent inhibition of rat DGAT2: 7
Rat DGAT2 mRNA; 1.85 nM
  percent inhibition of rat DGAT2: 0
Rat DGAT2 mRNA; 5.56 nM
  percent inhibition of rat DGAT2: 5
Rat DGAT2 mRNA; 16.67 nM
  percent inhibition of rat DGAT2: 30
Rat DGAT2 mRNA; 50 nM
  percent inhibition of rat DGAT2: 68
Rat DGAT2 mRNA; 150 nM
  percent inhibition of rat DGAT2: 91

## 372530 (antisense eT*e[5mC]*eG*dG*d[5mC]*d[5mC]*d[5mC]*d[5mC]*dA*dG*dG*dA*dG*e[5mC]*e[5mC]*e[5mC]) [compound 372530]
DGAT2 mRNA
  DGAT2 mRNA, % Control: 35%
Rat DGAT2 mRNA; 0.62 nM
  percent inhibition of rat DGAT2: 0
Rat DGAT2 mRNA; 1.85 nM
  percent inhibition of rat DGAT2: 2
Rat DGAT2 mRNA; 5.56 nM
  percent inhibition of rat DGAT2: 0
Rat DGAT2 mRNA; 16.67 nM
  percent inhibition of rat DGAT2: 10
Rat DGAT2 mRNA; 50 nM
  percent inhibition of rat DGAT2: 38
Rat DGAT2 mRNA; 150 nM
  percent inhibition of rat DGAT2: 78

## 372546 (antisense eT*eT*eG*dG*dT*d[5mC]*dT*dT*dG*dT*dG*dA*dT*eT*eG*eT) [compound 372546]
DGAT2 mRNA
  DGAT2 mRNA, % Control: 34%
Rat DGAT2 mRNA; 0.62 nM
  percent inhibition of rat DGAT2: 0
Rat DGAT2 mRNA; 1.85 nM
  percent inhibition of rat DGAT2: 2
Rat DGAT2 mRNA; 5.56 nM
  percent inhibition of rat DGAT2: 11
Rat DGAT2 mRNA; 16.67 nM
  percent inhibition of rat DGAT2: 4
Rat DGAT2 mRNA; 50 nM
  percent inhibition of rat DGAT2: 48
Rat DGAT2 mRNA; 150 nM
  percent inhibition of rat DGAT2: 78
